Data on ten compounds can be found in patent US5994365A, “Substituted diazaanthracene compounds having pharmaceutical utility” (Diazans Limited, priority 1998, dated 1999).

Converted amounts (≈) assume the structure as drawn. Read-outs that look alike come from different tables or passages of the source.

One experiment has as its system Hymenolepis nata. The conditions noted are these: U.S. Pat. No. 3,862,945; cited from earlier work.
A further experiment deals with S. aureus. The conditions noted are these: taken from Antibiotics in Laboratory Medicine; cited from earlier work.
The subject of experiment [1] is Escherichia coli ATCC 25922. Kind of experiment: Macrobroth dilution testing for antimicrobial activity (MIC). The conditions noted are these: ATCC25922, 18 h, macrodilution, read-out: Minimum Inhibitory Concentration. The experiment is classed as cell-based. As to the method:
(§1) A working antimicrobial solution was prepared by diluting the test compound in Mueller Hinton Broth (MHB) to the highest final concentration desired. The test was performed in 13×100 mm test tubes. Two mL of the working solution of test compound were added to test tube 1 of the dilution series. To each remaining tube, 1.0 mL of MHB was added. A sterile pipette was used to transfer 1.0 mL from tube 1 to tube 2. After thorough mixing 1.0 mL was transferred (with a separate pipette for this and each succeeding transfer) to tube 3. This process was continued to the next to last tube from which 1.0 mL was removed and discarded. The last tube received no antimicrobial agent and served as a growth control. The inoculum was prepared and adjusted to contain […] by adjusting the turbidity of a broth culture to match to 0.5 McFarland standard. It was then further diluted 1:200 in broth. One mL of the adjusted inoculum was added to each test tube. The final concentrations of antimicrobial agents in this test were half those of the initial dilution series because of the addition of an equal volume of inoculum in broth. Tubes were incubated at 35° C. for 18 hours. […] A very faint haziness or a small button is usually disregarded.

Experiment [2] relates to Staphlococcus aureus ATCC 25923. The experiment is described as above. The class given is cell-based. The conditions noted are these: Staphylococcus aureus, ATCC25923, 18 h, macrodilution, read-out: Minimum Inhibitory Concentration. The procedure: as §1
The subject of experiment [3] is Pseudomonas aeruginosa ATCC 27853. The experiment is described as above. The experiment is classed as cell-based. The conditions noted are these: ATCC27853, 18 h, macrodilution, read-out: Minimum Inhibitory Concentration. The procedure:
as §1

Another experiment relates to 41-SK. The experiment is described as follows: Antineoplastic activity, fluorescence based live-cell/dead cell ratio. On the set-up: species or system human. The procedure:
(§2) Values of IC50 (inhibitory concentration 50%) were calculated from the relative percent transmitted light as detected on a fluorescence 96 well plate reader.

Another experiment has as its system ZR-75-1. Described as above. The conditions noted are these: Homo sapiens, ZR-75-1, ZR-75-1. As to the method:
as §2

The test system of the next experiment is ASPC-1. The description is as above. The conditions noted are these: Homo sapiens, ASPC1, ASPC-1. As to the method: as §2
Experiment [4] relates to S. aureus ATCC 25923. The experiment is described as follows: Microbroth dilution assay of antimicrobial susceptibility (MIC). The experiment is classed as cell-based, Staphylococcus aureus. The conditions noted are these: microdilution, CAMHB, 37° C. The procedure: It is described below, using E. coli ATCC® 25922, S. aureus ATCC® 25923, and P. aeruginosa ATCC® 27853. Prepare 0.0128 g DAA in 10 mL dH2 O (or 95% EtOH, methanol or DMSO if H2 O insoluble)=1280 μg/mL (stock solution). Dilute DAA stock solution 1:10 with CAMHB (Cation-Adjusted Mueller Hinton Broth): 0.5 mL DAA stock solution+4.5 mL CAMHB=128 μg/mL (DAA working solution). Pipette 100 μl of sterile CAMHB per well into columns 2-12 of rows A-G using Eppendorf repeater pipette. Pipette 100 μl per well of sterile-filtered DAA working solution into columns 1 and 2 of rows A, C, E, G using Jensen electric pipette. Mix and transfer 100 μl from column 2 to 3 of rows A, C, E, G using Jensen pipette. Repeat to column 12 then discard 100 μl from column 12. Rows B, D and F are positive growth control lanes for each organism and contain only CAMHB and the organism--no DAA. Row H is the media additive control lane, if necessary (e.g. MeOH, EtOH, DMSO etc.). The concentration of the media additive is obtained by doing a 1:10 dilution of the additive with CAMHB (0.5 mL additive+4.5 mL CAMHB). Row G is considered to be "negative growth control" and is loaded with only CAMHB and the DAA. Inoculate 0.5 mL TSB (Trypticase Soy Broth) tubes with 3 single colonies each of E. coli, S. aureus, and P. Aeruginosa from TSA plates using sterile needle. Incubate @ 37° C. for 4-6 hr. Measure out 100 mL CAMHB using the sterile 100 mL volumetric flask. Pour the excess into a sterile reagent reservoir. Pipette 0.5 mL and discard, leaving 99.5 mL in each of the 3-Erlenmeyer flasks. Set aside. Use the excess CAMHB for the 1:10 dilution of inoculum: 0.5 mL inoculum+4.5 mL CAMHB. Perform a 1:200 dilution of inoculum: 0.5 mL of 1:10 diluted inoculum+99.5 mL CAMHB from previous step. Pipette 100 μl (using Eppendorf repeater pipette) E. coli into each well in columns 1-12 of rows A and B and columns 1-4 of row H (if media additive control lane necessary). Pipette 100 μl P. aeruginosa into each well in columns 1-12 of rows C and D and columns 5-8 of row H (if media additive control lane is necessary). Pipette 100 μl S. aureus into each well in columns 1-12 of rows E and F and columns 9-12 of row H (if media additive control lane is necessary). Incubate microtiter plates @ 37° C. for 18 hrs. The lowest concentration of antimicrobial agent that results in significant inhibition of visible growth represents the MIC (Minimal Inhibitory Concentration).
A general note: Dilution methods test growth across graded concentrations, often in twofold steps.

The subject of a further experiment is C. albicans ATCC 90028. Kind of experiment: In vitro antifungal susceptibility assay adapted from NCCLS (MIC). The class given is cell-based, Candida albicans. As to the method: (§3) Compounds of the invention also display antifungal activities. […] Using C. albicans ATCC® 90028, C. neoformans ATCC® 90112 and T. glabrata ATCC® 90030, the protocol is performed as follows:
(§4) Prepare 0.0128 g DAA in 10 mL dH2 O (or other if H2 O insoluble)=1280 μg/mL (stock solution). Dilute DAA stock solution 1:10 with RPMI-1640: 0.5 mL DAA stock solution+4.5 mL RPMI-1640=128 μg/mL (DAA working solution).
(§5) Inoculate rows A-H, columns 2-12 with 100 μl of RPMI-1640 using Eppendorf repeater pipette. Inoculate rows A-C columns 1 and 2 with 100 μl of 1st antibiotic (i.e. DAA-1) using electronic pipette. Inoculate rows E-G columns 1 and 2 with 100 μl of 2nd antibiotic (i.e. DAA-2) using electronic pipette. […] Plate is now ready for fungal inocula, which involves pipetting 100 μl of the inocula into all wells in rows A-C columns 1-12 and rows E-G columns 1-12. […]
(§6) Five colonies greater than 1 mm in diameter are suspended in a spectrophotometer cuvette containing 5 mL of sterile, 0.85% saline (colonies are obtained from 24 hrs. old Candida and Torulopsis cultures, while Cryptococcus colonies are chosen from 48 hrs. old cultures). Spectrophotometer is set to read % transmission at a wavelength of 530 nm, and is standardized using two cuvettes. […] Fungal inoculum is now prepared and ready to be introduced to microplates. […]

Experiment [5] has as its system E. coli ATCC 25922. Kind of experiment: Microbroth dilution assay of antimicrobial susceptibility (MIC). The class given is cell-based. The conditions noted are these: Escherichia coli, ATCC25922; microdilution, CAMHB, 37° C., 18 hrs. The procedure: It is described below, using E. coli ATCC® 25922, S. aureus ATCC® 25923, and P. aeruginosa ATCC® 27853. Prepare 0.0128 g DAA in 10 mL dH2 O (or 95% EtOH, methanol or DMSO if H2 O insoluble)=1280 μg/mL (stock solution). Dilute DAA stock solution 1:10 with CAMHB (Cation-Adjusted Mueller Hinton Broth): 0.5 mL DAA stock solution+4.5 mL CAMHB=128 μg/mL (DAA working solution). Pipette 100 μl of sterile CAMHB per well into columns 2-12 of rows A-G using Eppendorf repeater pipette. Pipette 100 μl per well of sterile-filtered DAA working solution into columns 1 and 2 of rows A, C, E, G using Jensen electric pipette. Mix and transfer 100 μl from column 2 to 3 of rows A, C, E, G using Jensen pipette. Repeat to column 12 then discard 100 μl from column 12. Rows B, D and F are positive growth control lanes for each organism and contain only CAMHB and the organism--no DAA. Row H is the media additive control lane, if necessary (e.g. MeOH, EtOH, DMSO etc.). The concentration of the media additive is obtained by doing a 1:10 dilution of the additive with CAMHB (0.5 mL additive+4.5 mL CAMHB). Row G is considered to be "negative growth control" and is loaded with only CAMHB and the DAA. Inoculate 0.5 mL TSB (Trypticase Soy Broth) tubes with 3 single colonies each of E. coli, S. aureus, and P. Aeruginosa from TSA plates using sterile needle. Incubate @ 37° C. for 4-6 hr. […]

The next experiment concerns T. glabrata ATCC 90030. The experiment is described as follows: In vitro antifungal susceptibility assay adapted from NCCLS (MIC). The class given is cell-based, Torulopsis glabrata. The conditions noted are these: Nakaseomyces glabratus, ATCC90030; RPMI-1640; read-out: MIC. As to the method:
as §3, §4, §5, §6

A further experiment relates to C. neoformans ATCC 90112. The experiment is described as above. The class given is cell-based, Cryptococcus neoformans. The conditions noted are these: Cryptococcus neoformans, ATCC90112; RPMI-1640; read-out: MIC. As to the method: as §3, §4, §5, §6
The test system of a further experiment is P. aeruginosa ATCC 27853. The conditions noted are these: control limits, Gentamicin 10 mcg disk; cited from earlier work.
Experiment [6] deals with S. aureus ATCC 25923. The conditions noted are these: control limits, Gentamicin 10 mcg disk; cited from earlier work.
Experiment [7] has as its system E. coli ATCC 25922. The conditions noted are these: control limits, Gentamicin 10 mcg disk; cited from earlier work.
[8] abbreviates: Staphylococcus aureus, ATCC25923, 18 h, read-out: MIC.

For `CC1NCc2cc3c(cc2C1c1ccccc1)CNC(C)C3c1ccccc1.Cl.Cl` (centres unmarked) [1,2,3,4,6,7,8,9-octahydro-3,8-dimethyl-4,9-diphenyl-pyrido[3,4-g]isoquinoline dihydrochloride], in the experiment on Hymenolepis nata, the anti-parasitic activity entry was “has an anti-parasitic activity”.

Consider `O=C(O)c1cn(C2CC2)c2cc(N3CCNCC3)c(F)cc2c1=O` [Ciprofloxacin], for which the MIC in the experiment on S. aureus was 0.25 to 1 µg/mL.

Turning to `Cc1cnc2cc3cncc(C)c3cc2c1` [Derivative No. 1], the MIC is 64 µg/mL (≈ 307 µM) in experiment [1]; 4 µg/mL (≈ 19.2 µM) in experiment [2]; above 64 µg/mL in [3]; 32 µg/mL (≈ 154 µM) in the experiment on S. aureus ATCC 25923 [4] (18 hrs, listed as 1,8-DAA-3,6-(Me)2.HCl); 64 µg/mL (≈ 307 µM) against C. albicans ATCC 90028 (RPMI-1640, listed as 1,8-DAA-3,6-(Me)2.HCl). Moreover, the 50% inhibitory concentration (IC50) (in general, the concentration at which inhibition is half-maximal) was 139.2 µg/mL with 41-SK (listed as 1,8-DAA(Me)2 · HCl), 47.3 µg/mL in the experiment with ZR-75-1 and 58 µg/mL with ASPC-1.

`Cc1cc2cc3c(C)c[n+]([O-])cc3cc2[n+]([O-])c1` [Derivative No. 7]: the MIC against E. coli ATCC 25922 [5] came to 4 µg/mL (≈ 16.6 µM); in the experiment on S. aureus ATCC 25923 [4] (setting [8]), 0.125 µg/mL (≈ 0.52 µM). The half-maximal inhibitory concentration (IC50) with 41-SK (Homo sapiens, read-out: IC50) is 11.3 µg/mL; in the experiment on ZR-75-1 it was 1.9 µg/mL; with ASPC-1, 9.3 µg/mL.

`Cc1cc2cc3c(C)c[n+](C)cc3cc2[n+](C)c1` [Example 8.4, N,N'-dimethyl-1,8-DAA-3,6-(Me)2 tetrafluoroborate hemihydrate]: the IC50 in the experiment on 41-SK (Homo sapiens, read-out: IC50) is 35.9 µg/mL; in the experiment on ZR-75-1, 38.3 µg/mL; in the experiment with ASPC-1, 62.5 µg/mL.

Regarding `Cc1cnc2c(c1)C(=O)c1c(C)cncc1C2=O` [Example 14], the MIC in the experiment with T. glabrata ATCC 90030 is 4 µg/mL (≈ 16.8 µM); in the experiment on C. neoformans ATCC 90112, 4 µg/mL (≈ 16.8 µM); in the experiment on S. aureus ATCC 25923 [4] (setting [8]), 1 µg/mL (≈ 4.2 µM); in the experiment with C. albicans ATCC 90028 (Candida albicans, ATCC90028, RPMI-1640, read-out: MIC), 8 µg/mL (≈ 33.6 µM).

`Cc1cncc2cc3c(C)cncc3cc12` [Example 17]: the MIC in the experiment with S. aureus ATCC 25923 [4] (setting [8]) was found to be 64 µg/mL (≈ 307 µM).

As to `CC1(C)S[C@@H]2[C@H](NC(=O)Cc3ccccc3)C(=O)N2[C@H]1C(=O)O` [Penicillin], the MIC with S. aureus is 8 to 16 µg/mL.

Regarding `CN(C)C1C(=O)C(C(N)=O)=C(O)C2(O)C(=O)C3=C(O)c4c(O)cccc4C(C)(O)C3CC12` (centres unmarked) [Tetracycline], the MIC with S. aureus is 0.5 to 32 µg/mL.

Gentamicin: the control zone diameter in the experiment on P. aeruginosa ATCC 27853 is 16-21 mm; in the experiment on S. aureus ATCC 25923 [6], 19-27 mm; in the experiment with E. coli ATCC 25922 [7] it was 19-26 mm. Moreover, the MIC in the experiment on S. aureus was 0.25 to 16 µg/mL.
